Test results: patent US10543212B2, “Substituted amines for treating cardiac diseases” (Cardurion Pharmaceuticals, LLC, priority 2017, dated 2020)
Where a name gives a salt, the structure may show the parent alone.

Each compound was assayed against T1, Human full-length CaMKIIδ (Homo sapiens, UniProt Q13557) (assay: Human CaMKII enzyme inhibition assay (radiometric kinase assay)). Details: 3 μM compound; 500 nM ATP; 0.5 nM CaMKIIδ.
T1 construct: Human full-length CaMKIIδ (Cat #02-111) was obtained from Carna Biosciences; GST; purchased Carna Biosciences 02-111
Assay type: biochemical
Description: In Vitro CaMKIIδ Inhibitory Activity was Evaluated by an Enzyme Assay.
Human CaMKII Enzyme Inhibition Assay
Kinase assay for CaMKIIs was performed using the radiometric assay. Human full-length CaMKIIδ (Cat #02-111) was obtained from Carna Biosciences (Kobe, Japan).
Enzyme reactions were performed in 25 mM HEPES, pH 7.5, with 5 mM magnesium chloride, 1 mM calcium chloride, 10 μg/mL Calmodulin, 2 mM DTT, 0.01% Tween20 and 500 nM ATP (0.2 μCi/well of [γ-33P] ATP) containing 0.5 nM CaMKIIδ and 0.1 μM autophosphorylation peptide (KKALRRQETVDAL)(Toray Research Center).
After incubating the enzyme, peptide, and compounds for 5 min, kinase reactions were initiated by adding ATP, followed by incubation for 60 min at room temperature in a total volume of 50 μL. The reactions were terminated by the addition of 10% trichloroacetic acid (final concentration). The [γ-33P]-phosphorylated proteins were filtered in a Harvest Plate (Merck Millipore) with a Cell Harvester (PerkinElmer) and then free [γ-33P] ATP was washed out with 3% phosphoric acid. The plates were dried, followed by the addition of 40 μl of MicroScintO (PerkinElmer). The radioactivity was counted by a TopCount scintillation counter (PerkinElmer). The signals of the reaction without enzyme were defined as 100% inhibitory activity and those of the reaction without inhibitors as 0% inhibitory activity. In vitro CaMKIIδ inhibitory activity was evaluated by % inhibitory activity of 3 μM compound concentration.

Compound	CaMKIIδ inhibitory activity (%) at 3 μM
COc1cc(N2CCC(N3CCOCC3)CC2)ccc1Nc1ncc(-c2ccc(C#N)c(O[C@@H](C)Cn3cnnn3)c2)cn1 [Example 9, 4-(2-((2-methoxy-4-(4-(morpholin-4-yl)piperidin-1-yl)phenyl)amino)pyrimidin-5-yl)-2-(((2S)-1-(1H-tetrazol-1-yl)propan-2-yl)oxy)benzonitrile]	99%

Same assay, conditions: 3 μM compound; 500 nM ATP; 0.5 nM CaMKIIδ; hydrochloride

Compound	CaMKIIδ inhibitory activity (%) at 3 μM
COc1cc(N2CCC(N3CCOCC3)CC2)ccc1Nc1ncc(-c2ccc(C#N)c(O[C@@H](C)Cn3cncn3)c2)cn1 [Example 8, 4-(2-((2-methoxy-4-(4-(morpholin-4-yl)piperidin-1-yl)phenyl)amino)pyrimidin-5-yl)-2-(((2S)-1-(1H-1,2,4-triazol-1-yl)propan-2-yl)oxy)benzonitrile hydrochloride]	98%

Same assay, conditions: 3 μM compound; 500 nM ATP; 0.5 nM CaMKIIδ; read-out: CaMKIIδ inhibitory activity (%) at 3 μM

Compound	inhibition at 3 µM
COc1cc(N2CCC(N3CCOCC3)CC2)ccc1Nc1ncc(-c2ccc(C#N)c(O[C@@H](C)Cn3cncn3)c2)cn1 [Example 1, 4-(2-((2-methoxy-4-(4-(morpholin-4-yl)piperidin-1-yl)phenyl)amino)pyrimidin-5-yl)-2-(((2S)-1-(1H-1,2,4-triazol-1-yl)propan-2-yl)oxy)benzonitrile]	99%
COc1ccccc1Nc1ncc(-c2ccc(C#N)c(O[C@@H](C)Cn3cncn3)c2)cn1 [Example 2, 4-(2-((2-methoxy-phenyl)amino)pyrimidin-5-yl)-2-(((2S)-1-(1H-1,2,4-triazol-1-yl)propan-2-yl)oxy)benzonitrile]	96%
COc1cc(N2CCC(N3CCOCC3)CC2)ccc1Nc1ncc(-c2ccc(C#N)c(O[C@@H](C)Cn3ncnn3)c2)cn1 [Example 5, 4-(2-((2-methoxy-4-(4-(morpholin-4-yl)piperidin-1-yl)phenyl)amino)pyrimidin-5-yl)-2-(((2S)-1-(2H-tetrazol-2-yl)propan-2-yl)oxy)benzonitrile]	98%
COc1cc(N2CCC(N3CCOCC3)CC2)ccc1Nc1ncc(-c2ccc(C#N)c(O[C@@H](C)Cn3cnnn3)c2)cn1 [Example 10, 4-(2-((2-methoxy-4-(4-(morpholin-4-yl)piperidin-1-yl)phenyl)amino)pyrimidin-5-yl)-2-(((2S)-1-(1H-tetrazol-1-yl)propan-2-yl)oxy)benzonitrile hydrochloride]	98%

Each compound was assayed against T2, Full-length, GST-tagged, human CaMKIIδ (Homo sapiens, UniProt Q13557) (assay: CaMKIIδ binding assay (TR-FRET with BODIPY-labeled probe ligand)). Details: CaMKIIδ binding assay, results of Table 2.
T2 construct: Full-Length, Glutathione-S-Transferase(GST)-Tagged, Human CaMKIIδ was purchased from Carna Biosciences; purchased Carna Biosciences 02-111
T2 sequence (Q13557 1-478 isoform Q13557-12): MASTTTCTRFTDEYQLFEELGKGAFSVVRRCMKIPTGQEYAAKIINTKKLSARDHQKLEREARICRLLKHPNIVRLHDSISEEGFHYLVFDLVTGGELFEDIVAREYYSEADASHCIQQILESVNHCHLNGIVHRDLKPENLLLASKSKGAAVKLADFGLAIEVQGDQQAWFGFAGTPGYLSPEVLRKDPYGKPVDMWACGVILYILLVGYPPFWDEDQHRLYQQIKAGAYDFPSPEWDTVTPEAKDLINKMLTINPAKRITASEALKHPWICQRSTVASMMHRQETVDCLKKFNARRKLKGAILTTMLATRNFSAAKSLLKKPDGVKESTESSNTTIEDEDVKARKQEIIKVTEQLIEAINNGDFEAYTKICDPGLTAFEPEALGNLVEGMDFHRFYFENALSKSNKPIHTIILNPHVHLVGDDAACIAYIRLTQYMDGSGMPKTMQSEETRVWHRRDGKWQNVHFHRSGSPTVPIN
Procedure, shortened: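 TR-FRET probe-displacement binding: 0.5 nM GST-CaMKIIδ with 10 μg/mL calmodulin, 1 mM CaCl2, 0.21 nM Tb-anti-GST Ab and 300 nM BODIPY probe in HEPES pH 7.6 buffer. Eight-point 4-fold dilutions, 1 hr at room temperature. IC50 from logistic fit; 100% inhibition defined by 3 μM parent compound.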

Compound	IC50
(S)-5-(3-((1-(1H-tetrazol-1-yl)propan-2-yl)oxy)-4-chlorophenyl)-N-(5-(piperidin-4-(trifluoromethoxy)phenyl)pyrimidin-2-amine [Example 532]	< 10 nM

Same assay, conditions: CaMKIIδ binding assay; activity class per Table 2

Compound	IC50
C[C@@H](Cn1cnnn1)Oc1cc(-c2cnc(Nc3cn(C4CC5(C4)CN(C4CCCOCC4)C5)nc3OCC(F)(F)F)nc2)ccc1Cl (stereo partly drawn) [Example 981, 5-(3-(((S)-1-(1H-tetrazol-1-yl)propan-2-yl)oxy)-4-chlorophenyl)-N-(1-(2-(oxepan-4-yl)-2-azaspiro[3.3]heptan-6-yl)-3-(2,2,2-trifluoroethoxy)-1H-pyrazol-4-yl)pyrimidin-2-amine]	< 10 nM
C[C@@H](Cn1cnnn1)Oc1cc(-c2cnc(Nc3cn(C4CC5(C4)CN(C4COCCOC4)C5)nc3OCC(F)(F)F)nc2)ccc1Cl [Example 982, (S)—N-(1-(2-(1,4-dioxepan-6-yl)-2-azaspiro[3.3]heptan-6-yl)-3-(2,2,2-trifluoroethoxy)-1H-pyrazol-4-yl)-5-(3-((1-(1H-tetrazol-1-yl)propan-2-yl)oxy)-4-chlorophenyl)pyrimidin-2-amine]	< 10 nM
CC(C)c1nn(C2CC3(C2)CN(C2COCCOC2)C3)cc1Nc1ncc(-c2ccc(Cl)c(O[C@@H](C)Cn3cnnn3)c2)cn1 [Example 983, (S)-N-(1-(2-(1,4-dioxepan-6-yl)-2-azaspiro[3.3]heptan-6-yl)-3-isopropyl-1H-pyrazol-4-yl)-5-(3-((1-(1H-tetrazol-1-yl)propan-2-yl)oxy)-4-chlorophenyl)pyrimidin-2-amine]	< 10 nM
C[C@@H](Cn1cnnn1)Oc1cc(-c2cnc(Nc3cn(C4CC5(C4)CN(Cc4ncccn4)C5)nc3OCC(F)(F)F)nc2)ccc1Cl [Example 984, (S)-5-(3-((1-(1H-tetrazol-1-yl)propan-2-yl)oxy)-4-chlorophenyl)-N-(1-(2-(pyrimidin-2-ylmethyl)-2-azaspiro[3.3]heptan-6-yl)-3-(2,2,2-trifluoroethoxy)-1H-pyrazol-4-yl)pyrimidin-2-amine]	< 10 nM
C[C@@H](Cn1cnnn1)Oc1cc(-c2cnc(Nc3cn(C4CC5(C4)CN(CCC(F)(F)F)C5)nc3OCC(F)(F)F)nc2)ccc1Cl [Example 998, (S)-5-(3-((1-(1H-tetrazol-1-yl)propan-2-yl)oxy)-4-chlorophenyl)-N-(3-(2,2,2-trifluoroethoxy)-1-(2-(3,3,3-trifluoropropyl)-2-azaspiro[3.3]heptan-6-yl)-1H-pyrazol-4-yl)pyrimidin-2-amine]	< 10 nM
Cc1nccc(N2CC3(CC(n4cc(Nc5ncc(-c6ccc(Cl)c(O[C@@H](C)Cn7cnnn7)c6)cn5)c(OCC(F)(F)F)n4)C3)C2)n1 [Example 1000, (S)-5-(3-((1-(1H-tetrazol-1-yl)propan-2-yl)oxy)-4-chlorophenyl)-N-(1-(2-(2-methylpyrimidin-4-yl)-2-azaspiro[3.3]heptan-6-yl)-3-(2,2,2-trifluoroethoxy)-1H-pyrazol-4-yl)pyrimidin-2-amine]	< 10 nM
C[C@@H](Cn1cnnn1)Oc1cc(-c2cnc(Nc3cn(C4CC5(C4)CN(c4ccccn4)C5)nc3OCC(F)(F)F)nc2)ccc1Cl [Example 1001, (S)-5-(3-((1-(1H-tetrazol-1-yl)propan-2-yl)oxy)-4-chlorophenyl)-N-(1-(2-(pyridin-2-yl)-2-azaspiro[3.3]heptan-6-yl)-3-(2,2,2-trifluoroethoxy)-1H-pyrazol-4-yl)pyrimidin-2-amine]	< 10 nM
C[C@@H](Cn1cnnn1)Oc1cc(-c2cnc(Nc3cn(C4CC5(C4)CN(C4(C#N)CCOCC4)C5)nc3OCC(F)(F)F)nc2)ccc1Cl [Example 1010, (S)-4-(6-(4-((5-(3-((1-(1H-tetrazol-1-yl)propan-2-yl)oxy)-4-chlorophenyl)pyrimidin-2-yl)amino)-3-(2,2,2-trifluoroethoxy)-1H-pyrazol-1-yl)-2-azaspiro[3.3]heptan-2-yl)tetrahydro-2H-pyran-4-carbonitrile]	< 10 nM
CO[C@H]1CC[C@@H](N2CC3(CC(n4cc(Nc5ncc(-c6ccc(Cl)c(O[C@@H](C)Cn7cnnn7)c6)cn5)c(C(C)C)n4)C3)C2)CC1 [Example 1011, 5-(3-(((S)-1-(1H-tetrazol-1-yl)propan-2-yl)oxy)-4-chlorophenyl)-N-(3-isopropyl-1-(2-(cis-4-methoxycyclohexyl)-2-azaspiro[3.3]heptan-6-yl)-1H-pyrazol-4-yl)pyrimidin-2-amine]	< 10 nM
COCCN1CC2(CC(n3cc(Nc4ncc(-c5ccc(Cl)c(O[C@@H](C)Cn6cnnn6)c5)cn4)c(C(C)C)n3)C2)C1 [Example 1012, (S)-5-(3-((1-(1H-tetrazol-1-yl)propan-2-yl)oxy)-4-chlorophenyl)-N-(3-isopropyl-1-(2-(2-methoxyethyl)-2-azaspiro[3.3]heptan-6-yl)-1H-pyrazol-4-yl)pyrimidin-2-amine]	< 10 nM
CC(C)c1nn(C2CC3(C2)CN(C2COCOC2)C3)cc1Nc1ncc(-c2ccc(Cl)c(O[C@@H](C)Cn3cnnn3)c2)cn1 [Example 1013, (S)-N-(1-(2-(1,3-dioxan-5-yl)-2-azaspiro[3.3]heptan-6-yl)-3-isopropyl-1H-pyrazol-4-yl)-5-(3-((1-(1H-tetrazol-1-yl)propan-2-yl)oxy)-4-chlorophenyl)pyrimidin-2-amine]	< 10 nM
